Broadly, the AUC(0-t) is the area under the concentration-time curve up to a stated or last time point. What is called Cmax is the highest concentration seen after dosing. Broadly, the Tmax is the time from dosing to the highest level.

Data on one molecule can be found in patent US20220265775A1, “COMPOSITIONS AND METHODS FOR TREATING PULMONARY EDEMA OR LUNG INFLAMMATION” (priority 2019, published 2022).

Data set [1] is described as follows: Single dose toxicokinetic (TK) study, intratracheal instillation of T3, serum total T3 by chemiluminescence assay. The arrangement: species or system Sprague-Dawley rats. The conditions noted are these: Sprague-Dawley, rat; for AUC(0-t) / Cmax / Cmax_D / Tmax / Vz_F_obs: inhaled or intranasal. The protocol: Sixty animals (plus two spare animals/sex/group) were anesthetized and dosed via intratracheal instillation of test or control materials for five consecutive days. On the day after the last dose a terminal blood collection was performed for clinical pathology, after which animals were euthanized and a gross examination of all organs was performed by a board certified veterinary pathologist. Select tissues were collected for histopathology. […] Terminal blood collection was performed at two designated time points per animal up to 24 hours after administration for toxicokinetic evaluation. TK animals were euthanized without further evaluation after the final blood collection. All animals were acclimated for a minimum of seven days prior to the dosing procedure. Animals underwent baseline observations and examinations prior to the initiation of the study, and clinical observations and body weight monitoring were performed throughout the in-life portion of the study. All animals received the same dose volume (0.3 mL) of either test or control materials. This maximum feasible dose (MFD) is constrained by the maximum volume that can be safely and reproducibly (over five days) instilled into lungs of rats weighing 250 g to 350 g, which was determined in preliminary toxicology studies to be 0.3 mL. Actual doses delivered are reported as both μg/kg body weight and μg/gm wet lung weight. The toxicity phase animals were 72-135 days of age at the time of initial dosing. Males weighed between 256.52 g and 307.50 g with a mean±standard deviation of 286.74±11.77 g, and females weighed between 250.46 g and 299.01 g with a mean±standard deviation of 260.64±10.34 g. The TK phase animals were 68-144 days of age at the time of initial dosing. Males weighed between 261.23 g and 316.19 g; females weighed between 250.06 g and 280.32 g.
For toxicokinetic experiments, rats were anesthetized with combination of ketamine 40 mg/kg to 200 mg/kg and xylazine 1 mg/kg to 7 mg/kg, intraperitoneally (IP), to effect for dosing procedures, and dosed intratracheally with liothyronine sodium injection as previously described. Depending on the duration of time between dosing and the first or second blood collection time points, animals either had blood collected while still anesthetized under the injectable anesthetics, or if recovered, they were anesthetized with Isoflurane 2-5% and oxygen 1-1.5 L/minute by inhalation anesthesia via nose cone, as needed, to maintain adequate anesthesia depth (assessed by toe pinch). Topical proparicaine anesthetic ophthalmic solution was applied to each eye prior to performing the first blood collection and allowed time to take effect. Collection of serum samples for TK analysis was as described for serum chemistry samples above, and samples were stored at ≤−70° C. until assayed. Animals were euthanized with EUTHASOL (Virbac Corp., Fort Worth, Tex.) ≥86 mg/kg IP to effect following the final blood collection.
For assessment of serum T3 levels samples were sent to the Fairview University of Minnesota Medical Center East Bank Diagnostic Laboratory for analysis, a clinical laboratory certified by CLIA and CAP. Prior to sending serum samples to the analytical lab each sample was diluted 1:4 or 1:8 in normal (0.9%) saline. […] Samples were analyzed by a chemiluminescence assay for total triiodothyronine (T3).
An evaluation of the TK analysis was performed by Dick Brundage, PhD, University of Minnesota. Toxicokinetic parameters were estimated using Phoenix 64 WinNonlin pharmacokinetic software version 7.0. (Pharsight Corp., Mountain View, Calif.). A non-compartmental (NCA) approach consistent with the route of administration was used for parameter estimation. […] Whenever possible, mean concentrations were derived from three animals/gender/time point. Parameters were estimated using sampling times relative to the start of each dose administration. […]

In data set [2] the test system is hyperoxia-induced lung injury. The data set is described as follows: Lung lavage (BAL) analyses in hyperoxia-exposed rats: protein concentration and cell counts. Format: in vivo, Sprague Dawley rats. From the text:
(§1) All experimental protocols for animal treatments were approved by the University of Minnesota Institutional Animal Care and Use Committee. […] The room-air control rats were kept in the University animal housing facility. At the end of hyperoxic exposure, rats were sacrificed by intraperitoneal pentobarbital injection, and the lungs were harvested; the right lobes were allocated for histopathology, measurement of lung tissue myeloperoxidase (MPO) activity and wet-to-dry weight ratio. The left lobes underwent bronchoalveolar lavage (BAL) to determine BAL protein concentrations and differential cell counts.
Bronchoalveolar lavage (BAL) of the left lung was performed using a modification of a method previously described (Pace et al., Exp Lung Res 35:380-398, 2009). Briefly, 4 mls of ice-chilled 1×PBS (pH 7.4) were instilled into the left lung, withdrawn, and re-instilled two subsequent times prior to analysis of the lavage fluid. The retrieved BAL fluid was centrifuged at 1500 rpm for 10 minutes to remove cells and debris. The cell pellet was resuspended in 1 ml of 1×PBS (pH 7.4) and total cell number was counted using a hemocytometer. BAL cytospin preparations were stained using the Hema3 stain kit (Thermo Fisher Scientific, Inc., Waltham, Mass.) to identify the nucleated cells. The protein concentration was determined on the supernatants of BAL fluid using a standard BCA assay (Sigma-Aldrich, St. Louis, Mo.).

Data set [3] relates to hyperoxia-induced lung injury. The data set is described as follows: Histopathological evaluation of lung sections of hyperoxia-exposed rats. It counts as in vivo, Sprague Dawley rats. The following applies: 60 hours of hyperoxia, systemic T3 supplementation.
From the text: FIG. 18. […] (A) Control: room air; (B) Hyperoxia; (C) Hyperoxia+T3.
as §1
Lung tissue was removed and inflation fixed at 20 cm water pressure in 4% paraformaldehyde, paraffin embedded, cut as 5 micron sections and mounted onto poly-L-lysine slides. Sections were deparaffinized in xylene, rehydrated through a graded alcohol series in methanol, and placed in a 98° C. water bath for 30 minutes in citrate buffer (pH 6.0) for antigen retrieval. After quenching with 0.3% hydrogen peroxide in PBS, sections were incubated in normal serum for 30 minutes and for 15 minutes each with Avidin/Biotin Blocking Kit (Vector Laboratories, Inc., Burlingame, Calif.). […]

The nature of data set [4]: Serum total T3 measurement (RIA) in hyperoxia-exposed rats. It counts as in vivo, Sprague Dawley rats. The conditions noted are these: rats exposed to 95% oxygen for 60 hours, intraperitoneal T3 supplementation 50 μg/kg bodyweight/24 hours, vs hyperoxia alone. The protocol: FIG. 13. […] Rats were exposed to ˜ 95% of oxygen for 60 hours. […] RA: room air control.
as §1
Blood samples were collected at the end of 60 hours of hyperoxia and were centrifuged at 13,000 rpm for 30 minutes at 4° C. Supernatant was stored at −20° C.

On to `N[C@@H](Cc1cc(I)c(Oc2ccc(O)c(I)c2)c(I)c1)C(=O)O` [T3, triiodothyronine], for which, in data set [1] (in vivo, male rats, individual animals, 15 min, single intratracheal dose 2.7 μg (~10.0 μg/kg)), the concentration at 15 min stood at 2.44 ng/mL. In data set [1] (female), the Cl_F_obs stood at 30.10 mL/h, the HL_Lambda_z came out at 2.85 h, the AUC(0-t) amounted to 64.1 ng·h/mL and the Cmax amounted to 16.5 ng/mL. Further, in data set [1] (female), the Cmax_D was found to be 6.12 ng/mL/µg, the Tmax came out at 2 h and the Vz_F_obs was 123.60 mL. For the same molecule, in data set [1] (male), the Cl_F_obs was determined as 74.29 mL/h, the HL_Lambda_z worked out at 3.17 h, the AUC(0-t) turned out to be 25.4 ng·h/mL and the Cmax is 6.6 ng/mL. Further, in data set [1] (male), the Cmax_D came out at 2.44 ng/mL/µg, the time of peak concentration (Tmax) was 1 h and the Vz_F_obs came to 339.44 mL. The “neutrophils among BALF cells” value in data set [2] (rats after hyperoxia with T3 treatment (data not shown)) is listed as “relatively few of the BALF cells after hyperoxia were neutrophils”. In addition, the BALF cell numbers result in data set [2] (rats, 95% oxygen, 48 hours and 60 hours, T3 administration vs hyperoxia alone) is on record as “significantly reduced the BALF cell numbers”. For the same molecule, the BALF protein concentration result in data set [2] (rats, hyperoxia, 48 hour and 60 hour time points, T3 administration vs hyperoxia alone) is recorded as “attenuated significantly the hyperoxic increases”. Further, the “lung morphology (histopathology)” value in data set [3] is given as “persistence of virtually normal lung morphology”. Also, the “serum total T3 level” value in data set [4] was “augmented serum total T3”.
